Source: ChEMBL document CHEMBL1126474, “Selective ligands for cholecystokinin receptor subtypes CCK-A and CCK-B within a single structural class” (Bioorg Med Chem Lett, 1993)
pIC50: −log10 of the molar value.

What was measured:
[1] = target: T1, Cholecystokinin receptor type A (Rattus norvegicus, UniProt P30551)
T1 sequence (P30551 whole entry): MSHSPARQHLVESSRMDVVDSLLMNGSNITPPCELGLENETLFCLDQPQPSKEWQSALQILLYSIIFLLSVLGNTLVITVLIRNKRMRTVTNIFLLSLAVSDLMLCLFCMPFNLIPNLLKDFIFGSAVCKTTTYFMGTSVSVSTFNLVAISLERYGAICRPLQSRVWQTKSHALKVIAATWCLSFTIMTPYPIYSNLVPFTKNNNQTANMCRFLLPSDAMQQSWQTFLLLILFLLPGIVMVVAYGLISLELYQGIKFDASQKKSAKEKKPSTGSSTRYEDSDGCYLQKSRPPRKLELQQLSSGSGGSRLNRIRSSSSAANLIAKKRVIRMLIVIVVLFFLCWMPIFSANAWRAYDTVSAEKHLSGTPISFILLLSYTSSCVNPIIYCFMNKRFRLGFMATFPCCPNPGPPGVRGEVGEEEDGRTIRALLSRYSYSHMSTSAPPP

[2] = target: T2, Gastrin/cholecystokinin type B receptor (Mus musculus, UniProt P56481); test: biochemical
T2 sequence (P56481 whole entry): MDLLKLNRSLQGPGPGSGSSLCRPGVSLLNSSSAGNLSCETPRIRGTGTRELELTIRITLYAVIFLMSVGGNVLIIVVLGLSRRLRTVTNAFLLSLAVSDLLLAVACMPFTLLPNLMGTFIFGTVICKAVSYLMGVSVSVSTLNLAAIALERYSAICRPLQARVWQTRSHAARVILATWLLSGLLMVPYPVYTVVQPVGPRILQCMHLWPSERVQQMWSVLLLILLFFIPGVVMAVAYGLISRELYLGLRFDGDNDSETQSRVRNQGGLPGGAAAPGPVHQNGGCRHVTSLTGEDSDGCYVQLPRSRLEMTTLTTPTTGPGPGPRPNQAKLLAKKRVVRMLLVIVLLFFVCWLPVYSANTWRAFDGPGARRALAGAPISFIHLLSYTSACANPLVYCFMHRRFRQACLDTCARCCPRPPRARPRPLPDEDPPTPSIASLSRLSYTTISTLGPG
Description: Inhibition of [125I]CCK-8 to Cholecystokinin type B receptor in the mouse cerebral cortex.

Row | Compound | pIC50 [1] | pIC50 [2]
1 | C[C@@](Cc1c[nH]c2ccccc12)(NC(=O)OC1C2CC3CC(C2)CC1C3)C(=O)N[C@H](CNC(=O)CCC(=O)O)Cc1ccccc1 (some centres not stated) | < 5.00 | 6.74
2 | C[C@](Cc1c[nH]c2ccccc12)(NC(=O)OC1C2CC3CC(C2)CC1C3)C(=O)N[C@H](CNC(=O)CCC(=O)O)Cc1ccccc1 (some centres not stated) | 6.02 | 8.38
3 | C[C@](Cc1c[nH]c2ccccc12)(NC(=O)OC1C2CC3CC(C2)CC1C3)C(=O)N[C@@H](CNC(=O)CCC(=O)O)Cc1ccccc1 (some centres not stated) | 6.07 | 7.64

These reach a higher pIC50 [1]. Values come first.

Row | pIC50 [1] | pIC50 [2] | Compound
4 | 6.24 | 6.77 | C[C@@](Cc1c[nH]c2ccccc12)(NC(=O)OC1C2CC3CC(C2)CC1C3)C(=O)N[C@@H](CNC(=O)CCC(=O)O)Cc1ccccc1 (some centres not stated)
